Like-named read-outs stand apart in the source and are kept apart here.
Columns and labels:
[1] = target: PDK1 (Homo sapiens (Human), UniProt O15530); test: PDK1 kinase assay (coupled PDK1/AKT/FAM-crosstide assay, IMAP fluorescence polarization); type: biochemical
Procedure, shortened: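 GST-tagged human PDK1 (aa 51-359, 0.75 nM) from insect cells activated unphosphorylated GST-AKT2 (aa 140-467–PIFtide fusion, 10 nM), which phosphorylated 100 nM FAM-crosstide; 40 μM ATP, pH 7.2 Tris/MgCl2, 30 min at 25° C. IMAP fluorescence polarization read-out; ΔmP versus compound concentration fitted with a 4-parameter curve.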

[2] = test system: phospho-akt (Thr308) in PC-3 cells; test: Inhibition of phospho-akt (Thr308) in PC-3 cells, MSD phospho-akt 308 ELISA kit; type: cell-based; conditions: Homo sapiens, 2 hours, no serum, read-out: EC50
Procedure, shortened: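 Electrochemiluminescent MSD ELISA of Thr308-phosphorylated Akt after a 2 h serum-free compound exposure of PC-3 cells (15,000/well, plated overnight). Controls: DMSO (high), 5 μM wortmannin (low). Lysate binding overnight at 4 °C; detection antibody 1 h at room temperature.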

[3] = inhibition of phospo-PDK1 in vitro
[4] = PC-3, 2 h, inhibition of P308 Akt in PC-3 cells, MSD
[5] = inhibition of P308 Akt in PC-3 cells, MSD
[6] = inhibition of P308 Akt in PC-3 cells using MSD

Sequence of PDK1 (O15530 51-359): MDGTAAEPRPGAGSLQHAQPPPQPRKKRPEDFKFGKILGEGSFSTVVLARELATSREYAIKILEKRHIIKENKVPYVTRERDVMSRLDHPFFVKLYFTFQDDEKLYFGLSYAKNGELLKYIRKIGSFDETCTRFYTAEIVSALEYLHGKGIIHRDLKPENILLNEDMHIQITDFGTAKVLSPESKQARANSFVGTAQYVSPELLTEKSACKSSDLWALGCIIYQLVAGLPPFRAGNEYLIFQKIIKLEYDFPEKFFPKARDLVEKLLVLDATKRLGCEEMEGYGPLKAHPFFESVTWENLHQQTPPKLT

Row | IC50 [1, 3] | EC50 [2, 4] | EC50 [2, 5] | IC50 ([1]; inhibition of PDK1 in vitro) | EC50 [2, 6] | Compound
1 | 1000 to 5000 nM | 1000 to 10000 nM | – | – | – | O=C(NCc1ccc(F)c(F)c1)c1cc(C(F)(F)F)cnc1N[C@@H](COc1ccc2[nH]c(=O)[nH]c2c1)c1ccccc1 [Example 16.4, (R)-N-(3,4-difluorobenzyl)-2-(2-(2-oxo-2,3-dihydro-1H-benzo[d]imidazol-5-yloxy)-1-phenylethylamino)-5-(trifluoromethyl)nicotinamide]
2 | 100 to 1000 nM | – | < 1000 nM | – | – | CCOC(=O)c1cnc(NCc2ccc(-c3ccc4ncnc(N)c4c3)s2)c(C(=O)NCc2ccc(F)c(F)c2)c1 [Example 7.23.2, Ethyl 6-({[5-(4-aminoquinazolin-6-yl)thiophen-2-yl]methyl}amino)-5-[(3,4-difluorobenzyl)carbamoyl]pyridine-3-carboxylate]
3 | – | – | – | < 100 nM | < 1000 nM | C[C@H](NC(=O)c1nc(C#N)cnc1N[C@H](CO)c1ccc(-c2cnc3[nH]nc(N)c3c2)cc1)c1ccc(F)c(F)c1 [Example 353, 3-((S)-1-(4-(3-amino-1H-pyrazolo[3,4-b]pyridin-5-yl)phenyl)-2-hydroxy-ethylamino)-6-cyano-N-((S)-1-(3,4-difluorophenyl)ethyl)pyrazine-2-carboxamide]
4 | – | – | – | < 100 nM | < 1000 nM | Nc1ncc(-c2ccc(CNc3ncc(C(F)(F)F)cc3C(=O)Nc3ccc(F)cc3)cc2)nc1O[C@@H]1CCC[C@H]1N [Example 173, 2-{4-[5-Amino-6-((1R,2R)-2-amino-cyclopentyloxy)-pyrazin-2-yl]-benzylamino}-N-(4-fluoro-phenyl)-5-trifluoromethyl-nicotinamide]
5 | 1000 to 5000 nM | – | > 10000 nM | – | – | C[C@H](NC(=O)c1c(NCc2ccc(-c3ccc4ncnc(N)c4c3)s2)ncc(Br)c1N)c1ccc(F)c(F)c1 [Example 3.87]
6 | – | – | – | > 5000 nM | > 10000 nM | C[C@H](NC(=O)c1cc(C#N)cnc1NCc1ccc(Oc2ccnc(N)c2)cc1)c1ccc(F)cc1 [Example 388]
7 | – | – | – | < 100 nM | 1000 to 10000 nM | C[C@H](NC(=O)c1cc(C#N)cnc1NCc1ccc(-c2cnc(N)c(C(=O)N3CCNCC3)n2)cc1)c1ccc(F)cc1 [Example 221, 2-{4-[5-Amino-6-(piperazine-1-carbonyl)-pyrazin-2-yl]-benzylamino}-5-cyano-N-[(S)-1-(4-fluoro-phenyl)-ethyl]-nicotinamide]
8 | – | – | – | < 100 nM | < 1000 nM | C[C@H](NC(=O)c1nc(C#N)cnc1NCc1ccc(-c2cnc3[nH]ncc3c2)cc1)c1ccc(F)c(F)c1 [Example 390, 6-Cyano-3-[4-(1H-pyrazolo [3,4-b]pyridin-5-yl)-benzylamino]-pyrazine-2-carboxylic acid [(S)-1-(3,4-difluoro-phenyl)-ethyl]-amide]
9 | > 5000 nM | – | > 10000 nM | – | – | CCOc1cnc(NCc2ccc(-c3ccc4ncnc(N)c4c3)s2)c(C(=O)NCc2ccc(F)c(F)c2)c1 [Example 8.1.3, 2-({[5-(4-aminoquinazolin-6-yl)thiophen-2-yl]methyl}amino)-N-(3,4-difluorobenzyl)-5-ethoxypyridine-3-carboxamide]
10 | – | – | – | > 5000 nM | > 10000 nM | CNC(=O)c1cc(S(=O)(=O)NCCO)cnc1NCc1ccc(-c2ccc3ncnc(N)c3c2)s1 [Example 342]
11 | – | – | – | < 100 nM | < 1000 nM | Cc1cc(F)ccc1NC(=O)c1cc(C(F)(F)F)cnc1NCc1ccc(-c2cnc3[nH]nc(N)c3c2)cc1 [Example 295, 2-(4-(3-amino-1H-pyrazolo [3,4-b]pyridin-5-yl)benzylamino)-N-(4-fluoro-2-methylphenyl)-5-(trifluoromethyl)nicotinamide]
12 | – | – | – | < 100 nM | < 1000 nM | N#Cc1cnc(NCc2ccc(-c3ccc(N)nc3)cc2)c(C(=O)NCc2ccc(F)c(F)c2)c1 [Example 368, 2-(4-(6-aminopyridin-3-yl)benzylamino)-5-cyano-N-(3,4-difluorobenzyl) nicotinamide]
13 | 100 to 1000 nM | 1000 to 10000 nM | – | – | – | CC(Nc1ncccc1C(=O)NCc1ccc(F)c(F)c1)c1ccc(-c2ccc3ncnc(N)c3c2)s1 (stereo not shown) [Ex. 7.2]
14 | < 100 nM | – | 1000 to 10000 nM | – | – | Nc1ncnc2ccc(-c3ccc(CNc4nc(C(F)(F)F)ccc4C(=O)NCc4ccc(F)c(F)c4)s3)cc12 [Example 8.12.2, 2-({[5-(4-aminoquinazolin-6-yl)thiophen-2-yl]methyl}amino)-N-(3,4-difluorobenzyl)-6-(trifluoromethyl)pyridine-3-carboxamide]
15 | – | – | – | < 100 nM | < 1000 nM | C[C@H](NC(=O)c1nc(C#N)cnc1NCc1ccc(-c2cnc(N)c(NCCN)n2)cc1)c1ccc(F)c(F)c1 [Example 195, 3-{4-[5-Amino-6-(2-amino-ethylamino)-pyrazin-2-yl]-benzylamino}-6-cyano-pyrazine-2-carboxylic acid [(S)-1-(3,4-difluoro-phenyl)-ethyl]-amide]
16 | – | – | – | < 100 nM | < 1000 nM | C[C@H](NC(=O)c1cc(C#N)cnc1NCc1ccc(-c2c[nH]c3ncnc(N)c23)cc1)c1ccc(F)cc1 [Example 41, 2-[4-(4-Amino-7H-pyrrolo[2,3-d]pyrimidin-5-yl)-benzylamino]-5-cyano-N-[(S)-1-(4-fluoro-phenyl)-ethyl]-nicotinamide]
17 | – | – | – | < 100 nM | < 1000 nM | Nc1cnc(-c2ccc(CNc3ncc(C(F)(F)F)cc3C(=O)NCc3ccc(F)cc3)cc2)cn1 [Example 383, 2-(4-(5-aminopyrazin-2-yl)benzylamino)-N-(4-fluorobenzyl)-5-(trifluoromethyl)nicotinamide]
18 | – | – | – | > 5000 nM | > 10000 nM | C[C@H](NC(=O)c1cc(C#N)cnc1NCc1ccc(-c2ccc(C#N)nc2)cc1)c1ccc(F)cc1 [Example 111, (S)-5-cyano-2-(4-(6-cyanopyridin-3-yl)benzylamino)-N-(1-(4-fluorophenyl)ethyl)nicotinamide]
19 | 100 to 1000 nM | 1000 to 10000 nM | – | – | – | CN(C)/C=N/c1cnc(NCc2ccc(-c3ccc4ncnc(N)c4c3)s2)c(C(=O)NCc2ccc(F)c(F)c2)c1 [Example 8.6.5, 2-({[5-(4-aminoquinazolin-6-yl)thiophen-2-yl]methyl}amino)-N-(3,4-difluorobenzyl)-5-{[(E)-(dimethylamino)methylidene]amino}pyridine-3-carboxamide]
20 | – | – | – | < 100 nM | 1000 to 10000 nM | O=C(NCc1ccc(F)cc1)c1cccnc1NCc1ccc(-c2cnc3[nH]ncc3c2)cc1 [Example 393, 2-(4-(1H-pyrazolo[3,4-b]pyridin-5-yl)benzylamino)-N-(4-fluorobenzyl) nicotinamide]
21 | – | – | – | < 100 nM | 1000 to 10000 nM | C[C@H](NC(=O)c1cc(C#N)cnc1NCc1ccc(-c2cnc(N)c(O[C@@H]3CCC[C@H]3N)n2)cc1)c1ccc(F)cc1 [Example 171, 2-{4-[5-Amino-6-((1R,2R)-2-amino-cyclopentyloxy)-pyrazin-2-yl]-benzylamino}-5-cyano-N-[(S)-1-(4-fluoro-phenyl)-ethyl]-nicotinamide]
22 | – | – | – | 1000 to 5000 nM | 1000 to 10000 nM | Cn1ccc(NC(=O)c2cc(C(F)(F)F)cnc2NCc2ccc(-c3cnc4[nH]nc(N)c4c3)cc2)n1 [Example 307, 2-(4-(3-amino-1H-pyrazolo [3,4-b]pyridin-5-yl)benzylamino)-N-(1-methyl-1H-pyrazol-3-yl)-5-(trifluoromethyl)nicotinamide]
23 | – | – | – | < 100 nM | < 1000 nM | N#Cc1cnc(NCc2ccc(-c3cnc4[nH]c(=O)[nH]c4c3)cc2)c(C(=O)NCc2ccc(F)cc2)n1 [Example 365, 6-cyano-N-(4-fluorobenzyl)-3-(4-(2-oxo-2,3-dihydro-1H-imidazo[4,5-b]pyridin-6-yl)benzylamino)pyrazine-2-carboxamide]
